Assay results as given in PubChem BioAssay (NCI).
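Grown in 96-well plates, cells were treated for 48 hours with each compound at five concentrations. Insufficient inhibition: endpoint recorded as highest concentration tested. Definition used: TGI = concentration required for complete inhibition of growth.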

Experiments:
Test in all cases: growth of human tumour cells (NCI), 48 h
DMS 114 small cell lung = tested on: DMS 114 small cell lung
SF-539 CNS = tested on: SF-539 CNS
HOP-62 NSCLC = tested on: HOP-62 NSCLC
SW-620 colon = tested on: SW-620 colon
U251 CNS = tested on: U251 CNS
MALME-3M melanoma = tested on: MALME-3M melanoma
OVCAR-8 ovarian = tested on: OVCAR-8 ovarian
HOP-92 NSCLC = tested on: HOP-92 NSCLC
KM20L2 colon = tested on: KM20L2 colon
HCT-15 colon = tested on: HCT-15 colon
SF-295 CNS = tested on: SF-295 CNS
TK-10 renal = tested on: TK-10 renal
SNB-19 CNS = tested on: SNB-19 CNS
CAKI-1 renal = tested on: CAKI-1 renal
HOP-18 NSCLC = tested on: HOP-18 NSCLC
LOX IMVI melanoma = tested on: LOX IMVI melanoma
786-0 renal = tested on: 786-0 renal
MOLT-4 leukemia = tested on: MOLT-4 leukemia
NCI-H23 lung = tested on: NCI-H23 lung
M14 melanoma = tested on: M14 melanoma
SN12C renal = tested on: SN12C renal
A549 NSCLC = tested on: A549 NSCLC
HT29 colon = tested on: HT29 colon
SK-OV-3 ovarian = tested on: SK-OV-3 ovarian
OVCAR-4 ovarian = tested on: OVCAR-4 ovarian
K-562 leukemia = tested on: K-562 leukemia
DLD-1 colon = tested on: DLD-1 colon
IGROV1 ovarian = tested on: IGROV1 ovarian
HL-60(TB) leukemia = tested on: HL-60(TB) leukemia
DMS 273 small cell lung = tested on: DMS 273 small cell lung
CCRF-CEM leukemia = tested on: CCRF-CEM leukemia
RPMI-8226 leukemia = tested on: RPMI-8226 leukemia
RXF 393 renal = tested on: RXF 393 renal
ACHN renal = tested on: ACHN renal
SK-MEL-5 melanoma = tested on: SK-MEL-5 melanoma
SK-MEL-2 melanoma = tested on: SK-MEL-2 melanoma
XF 498 CNS = tested on: XF 498 CNS
SK-MEL-28 melanoma = tested on: SK-MEL-28 melanoma
SNB-75 CNS = tested on: SNB-75 CNS
RXF-631 renal = tested on: RXF-631 renal
M19-MEL melanoma = tested on: M19-MEL melanoma
UACC-62 melanoma = tested on: UACC-62 melanoma
COLO 205 colon = tested on: COLO 205 colon
UACC-257 melanoma = tested on: UACC-257 melanoma
NCI-H460 lung = tested on: NCI-H460 lung
OVCAR-3 ovarian = tested on: OVCAR-3 ovarian
SNB-78 CNS = tested on: SNB-78 CNS
UO-31 renal = tested on: UO-31 renal
EKVX NSCLC = tested on: EKVX NSCLC
A498 renal = tested on: A498 renal
HCC-2998 colon = tested on: HCC-2998 colon
HCT-116 colon = tested on: HCT-116 colon
SR leukemia = tested on: SR leukemia
NCI-H522 lung = tested on: NCI-H522 lung
OVCAR-5 ovarian = tested on: OVCAR-5 ovarian
KM12 colon = tested on: KM12 colon
SF-268 CNS = tested on: SF-268 CNS
NCI-H226 lung = tested on: NCI-H226 lung
LXFL 529 NSCLC = tested on: LXFL 529 NSCLC

CC1OC(n2cc(Cl)c(=O)[nH]c2=O)C=C(OC(=O)c2ccccc2)C1=O (stereo not given)
TGI (DMS 114 small cell lung): > 100 µM
TGI (SF-539 CNS): > 100 µM
TGI (HOP-62 NSCLC): > 100 µM
TGI (SW-620 colon): > 100 µM
TGI (U251 CNS): > 100 µM
TGI (MALME-3M melanoma): > 100 µM
TGI (OVCAR-8 ovarian): > 100 µM
TGI (HOP-92 NSCLC): > 100 µM
TGI (KM20L2 colon): > 100 µM
TGI (HCT-15 colon): > 100 µM
TGI (SF-295 CNS): > 100 µM
TGI (TK-10 renal): > 100 µM
TGI (SNB-19 CNS): > 100 µM
TGI (CAKI-1 renal): > 100 µM
TGI (HOP-18 NSCLC): > 100 µM
TGI (LOX IMVI melanoma): > 100 µM
TGI (786-0 renal): > 100 µM
TGI (MOLT-4 leukemia): > 100 µM
TGI (NCI-H23 lung): > 100 µM
TGI (M14 melanoma): > 100 µM
TGI (SN12C renal): > 100 µM
TGI (A549 NSCLC): > 100 µM
TGI (HT29 colon): > 100 µM
TGI (SK-OV-3 ovarian): > 100 µM
TGI (OVCAR-4 ovarian): > 100 µM
TGI (K-562 leukemia): > 100 µM
TGI (DLD-1 colon): > 100 µM
TGI (IGROV1 ovarian): > 100 µM
TGI (HL-60(TB) leukemia): > 100 µM
TGI (DMS 273 small cell lung): > 100 µM
TGI (CCRF-CEM leukemia): > 100 µM
TGI (RPMI-8226 leukemia): > 100 µM
TGI (RXF 393 renal): > 100 µM
TGI (ACHN renal): > 100 µM
TGI (SK-MEL-5 melanoma): > 100 µM
TGI (SK-MEL-2 melanoma): > 100 µM
TGI (XF 498 CNS): > 100 µM
TGI (SK-MEL-28 melanoma): > 100 µM
TGI (SNB-75 CNS): > 100 µM
TGI (RXF-631 renal): > 100 µM
TGI (M19-MEL melanoma): > 100 µM
TGI (UACC-62 melanoma): > 100 µM
TGI (COLO 205 colon): > 100 µM
TGI (UACC-257 melanoma): > 100 µM
TGI (NCI-H460 lung): > 100 µM
TGI (OVCAR-3 ovarian): > 100 µM
TGI (SNB-78 CNS): > 100 µM
TGI (UO-31 renal): > 100 µM
TGI (EKVX NSCLC): > 100 µM

O=C(CN1CCN(c2cccc(Cl)c2)CC1)N1CCc2c([nH]c3ccccc23)C1c1cccnc1 (stereo not given)
TGI (DMS 114 small cell lung): 39.4 µM
TGI (SF-539 CNS): 42.3 µM
TGI (HOP-62 NSCLC): 63.9 µM
TGI (SW-620 colon): 52 µM
TGI (U251 CNS): 48.8 µM
TGI (A498 renal): 67.9 µM
TGI (OVCAR-8 ovarian): > 100 µM
TGI (HOP-92 NSCLC): 42 µM
TGI (KM20L2 colon): 11.7 µM
TGI (HCT-15 colon): > 100 µM
TGI (SF-295 CNS): 50.8 µM
TGI (HCC-2998 colon): 21.6 µM
TGI (TK-10 renal): > 100 µM
TGI (SNB-19 CNS): > 100 µM
TGI (CAKI-1 renal): 54.7 µM
TGI (HOP-18 NSCLC): 97.8 µM
TGI (786-0 renal): 44.3 µM
TGI (MOLT-4 leukemia): 6.94 µM
TGI (NCI-H23 lung): 50.3 µM
TGI (M14 melanoma): 19.4 µM
TGI (SN12C renal): > 100 µM
TGI (A549 NSCLC): > 100 µM
TGI (HT29 colon): 15.9 µM
TGI (SK-OV-3 ovarian): > 100 µM
TGI (HCT-116 colon): 17 µM
TGI (OVCAR-4 ovarian): 75.7 µM
TGI (K-562 leukemia): 17.8 µM
TGI (SR leukemia): 7.19 µM
TGI (DLD-1 colon): > 100 µM
TGI (IGROV1 ovarian): > 100 µM
TGI (DMS 273 small cell lung): 84.5 µM
TGI (CCRF-CEM leukemia): 17.8 µM
TGI (NCI-H522 lung): 48.6 µM
TGI (RPMI-8226 leukemia): 5.26 µM
TGI (OVCAR-5 ovarian): 45.2 µM
TGI (RXF 393 renal): 14.8 µM
TGI (ACHN renal): > 100 µM
TGI (SK-MEL-5 melanoma): 32.6 µM
TGI (XF 498 CNS): 35.9 µM
TGI (KM12 colon): 20.2 µM
TGI (SK-MEL-28 melanoma): > 100 µM
TGI (SNB-75 CNS): 26.6 µM
TGI (RXF-631 renal): 40.4 µM
TGI (M19-MEL melanoma): 68.6 µM
TGI (UACC-62 melanoma): 39.3 µM
TGI (SF-268 CNS): > 100 µM
TGI (UACC-257 melanoma): 35.4 µM
TGI (NCI-H460 lung): 33.1 µM
TGI (OVCAR-3 ovarian): 42.2 µM
TGI (SNB-78 CNS): > 100 µM
TGI (UO-31 renal): 57.7 µM
TGI (EKVX NSCLC): 94.1 µM

COc1ccc(-c2nc(Sc3c([N+](=O)[O-])ncn3C)n[nH]2)cc1
TGI (DMS 114 small cell lung): 6.64 µM
TGI (SF-539 CNS): 4.18 µM
TGI (HOP-62 NSCLC): 89.9 µM
TGI (SW-620 colon): > 100 µM
TGI (U251 CNS): 5.55 µM
TGI (A498 renal): 37.6 µM
TGI (MALME-3M melanoma): 9.9 µM
TGI (OVCAR-8 ovarian): 5.4 µM
TGI (HOP-92 NSCLC): 8.88 µM
TGI (SF-295 CNS): 16.5 µM
TGI (HCC-2998 colon): 30.2 µM
TGI (TK-10 renal): 44.2 µM
TGI (SNB-19 CNS): 39.3 µM
TGI (CAKI-1 renal): > 100 µM
TGI (HOP-18 NSCLC): 5.53 µM
TGI (LOX IMVI melanoma): 7.92 µM
TGI (786-0 renal): 13.8 µM
TGI (MOLT-4 leukemia): 9.56 µM
TGI (NCI-H226 lung): 38.1 µM
TGI (NCI-H23 lung): 3.97 µM
TGI (M14 melanoma): 4.96 µM
TGI (SN12C renal): 8.23 µM
TGI (A549 NSCLC): > 100 µM
TGI (SK-OV-3 ovarian): > 100 µM
TGI (HCT-116 colon): > 100 µM
TGI (OVCAR-4 ovarian): 81.2 µM
TGI (K-562 leukemia): > 100 µM
TGI (SR leukemia): 37.3 µM
TGI (DLD-1 colon): 6.82 µM
TGI (IGROV1 ovarian): 77.3 µM
TGI (DMS 273 small cell lung): 4.77 µM
TGI (CCRF-CEM leukemia): 40.2 µM
TGI (NCI-H522 lung): 5.75 µM
TGI (RPMI-8226 leukemia): 23.9 µM
TGI (OVCAR-5 ovarian): > 100 µM
TGI (RXF 393 renal): 4.28 µM
TGI (ACHN renal): 23.1 µM
TGI (SK-MEL-5 melanoma): 6.83 µM
TGI (SK-MEL-2 melanoma): 4.95 µM
TGI (XF 498 CNS): 9.78 µM
TGI (KM12 colon): 4.31 µM
TGI (SK-MEL-28 melanoma): 22 µM
TGI (SNB-75 CNS): > 100 µM
TGI (RXF-631 renal): 22.2 µM
TGI (LXFL 529 NSCLC): 13 µM
TGI (M19-MEL melanoma): > 100 µM
TGI (UACC-62 melanoma): 11.1 µM
TGI (SF-268 CNS): 21.1 µM
TGI (COLO 205 colon): 3.28 µM
TGI (UACC-257 melanoma): 39.2 µM
TGI (NCI-H460 lung): 69.1 µM
TGI (SNB-78 CNS): > 100 µM
TGI (UO-31 renal): > 100 µM
TGI (EKVX NSCLC): > 100 µM
